{
  "source": "patent EP0594540B1",
  "about": "“Antiretroviral acyl compounds” (Novartis AG, priority 1992, dated 1994)",
  "assay": "Blood concentration in mice after oral administration (reversed-phase HPLC)",
  "format": "in vivo, Mäusen",
  "conditions": "oral gavage",
  "protocol": "Die zu untersuchenden Verbindungen der Formel I oder als Kontrolle die Vergleichsverbindung der Formel II werden in Dimethylsulfoxid (DMSO) in einer Konzentration von 240 mg/ml gelöst. Die resultierenden Lösungen werden mit 20% (w/v) Hydroxypropyl-β-cyclodextrin (HPβCD) verdünnt, um eine Konzentration der Testsubstanz von 12 mg/ml zu erhalten. Diese Lösung wird Mäusen durch künstliche Sonderernährung in einer Dosis von 120 mg/kg verabreicht. 30, 60, 90 und 120 min nach der Verabreichung werden die Tiere getötet und Blut entnommen. Pro Zeitpunkt werden drei bis vier Tiere untersucht. Das Blut wird heparinisiert und für die Analyse durch eine der folgenden beiden Methoden vorbereitet: Nach der ersten Methode wird Vollblut deproteinisiert durch Mischen eines Volumenteils Blut mit einem Volumenteil Acetonitril; nach Zentrifugation wird der Überstand durch Reversed-Phase-HPLC untersucht. Nach der zweiten Methode wird ein interner Standard zum heparinisierten Blut in einer Endkonzentration von 4 µM zugegeben. Das Blut wird zentrifugiert. 0,25 ml Plasma werden abgenommen und mit einem gleichen Volumen Acetonitril deproteinisiert. Nach Zentrifugation wird der Überstand unter Vakuum eingetrocknet und der Rückstand in 20 µl 3M NaCl-Lösung und 100 µl 0,05M Phthalat-Puffer mit einem pH von 3,0 suspendiert. Die Suspension wird erst mit 1 ml, dann mit 0,2 ml Diisopropylether extrahiert. […]",
  "data": [
    {"smiles": "CC(=O)O[C@H](CN1C[C@H]2CCCC[C@H]2C[C@H]1C(=O)NC(C)(C)C)[C@H](Cc1ccccc1)NC(=O)[C@H](CC(N)=O)NC(=O)c1ccc2ccccc2n1", "note": "[N-tert.-Butyl-decahydro-2-[2(R)-acetyloxy-4-phenyl-3(S)-[[N-(2-chinolylcarbonyl)-L-asparaginyl]amino]butyl]-(4aS,8aS)-isochinolin-3(S)-carboxamid]", "values": [
      {"measurement": "Konzentration der aktiven Komponente der Formel II im Blut", "setting": "120 mg/kg, 30, 60, 90 and 120 min after dosing, compared with administration of the compound of formula II in unesterified form", "result": "mehr als dreimal so hoch"},
      {"measurement": "Absorption der Verbindung der Formel I", "setting": "120 mg/kg, compared with absorption of the compound of formula II", "result": "mehr als viermal so hoch"}
    ]}
  ]
}
